Data published in US12552783B2, “Modulators of proteolysis and associated methods of use” (Arvinas Operations, Inc., priority 2018, dated 2026).

Biological target: KRas (Homo sapiens, UniProt P01116, G12C)
Experiment: KRas degradation in NCI-H2030 cells by Western blot, normalized to GAPDH (data of Table 14)
Format: cell-based
Design: host or cells: NCI-H2030
Settings: for Percent Degradation at Indicated Concentration (μM): H2030; for Dmax: NCI-H2030
Method in brief: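 Cells serum-starved 24 h, then treated at 0.3, 1 and 3 μM in 0.1% DMSO, 24 h for VHL-based compounds and 72 h for others. Lysates (10 μg protein) immunoblotted; KRas normalized to GAPDH, degradation visually estimated below 25% or quantified versus DMSO lane, giving DC50 and DMax.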

Question: Which “Percent Degradation at Indicated Concentration (μM)” value (0.3 μM) does the source give for `C=CC(=O)N1CCN(c2nc(NCCC(=O)N(C)CCOCCOc3ccc4c(c3)C(=O)N(C3CCC(=O)NC3=O)C4=O)nc3c(F)c(-c4c(O)cccc4F)c(Cl)cc23)CC1` [compound 69, 3-(((S)-4-(4-acryloylpiperazin-1-yl)-6-chloro-8-fluoro-7-(2-fluoro-6-hydroxyphenyl)quinazolin-2-yl)amino)-N-(2-(2-((2-(2,6-dioxopiperidin-3-yl)-1,3-dioxoisoindolin-5-yl)oxy)ethoxy)ethyl)-N-methylpropanamide] here?
Answer: C (Percent Degradation: C ≤ 35)

Question: What about the “Percent Degradation at Indicated Concentration (μM)” value (1 μM) of the same compound?
Answer: C (Percent Degradation: C ≤ 35)

Question: And the “Percent Degradation at Indicated Concentration (μM)” value (3 μM)?
Answer: C (Percent Degradation: C ≤ 35)

Question: And the Dmax?
Answer: ≤ 35%

Question: For `CCC(=O)N1CCN(c2nc(NCCC(=O)N(C)CCOCCOCCOc3ccc4c(c3)C(=O)N(C3CCC(=O)NC3=O)C4=O)nc3c(F)c(-c4cc(O)cc5ccccc45)c(Cl)cc23)CC1` (centres unmarked) [compound 48, 3-((6-chloro-8-fluoro-7-(3-hydroxynaphthalen-1-yl)-4-(4-propionylpiperazin-1-yl)quinazolin-2-yl)amino)-N-(2-(2-(2-((2-(2,6-dioxopiperidin-3-yl)-1,3-dioxoisoindolin-5-yl)oxy)ethoxy)ethoxy)ethyl)-N-methylpropanamide], which “Percent Degradation at Indicated Concentration (μM): 0.3” value (“Percent Degradation … 0.3” below) (H2030 cells, 0.3 μM) is on record?
Answer: C (C ≤ 35)

Question: And the “Percent Degradation at Indicated Concentration (μM): 1” value (shortened to “Percent Degradation … 1”) (H2030 cells, 1 μM)?
Answer: C (C ≤ 35)

Question: What about the “Percent Degradation at Indicated Concentration (μM): 3” value (shortened to “Percent Degradation … (μM): 3”) (H2030 cells, 3 μM) of the same compound?
Answer: C (C ≤ 35)

Question: What about the Dmax (H2030 cells) of the same compound?
Answer: ≤ 35%

Question: `C=CC(=O)N1CCN(c2nc(NCCC(=O)N(C)CCOCCOCCNc3cccc4c3C(=O)N(C3CCC(=O)NC3=O)C4=O)nc3c(F)c(-c4cc(O)cc5ccccc45)c(Cl)cc23)CC1` (centres unmarked) [compound 57, 3-((4-(4-acryloylpiperazin-1-yl)-6-chloro-8-fluoro-7-(3-hydroxynaphthalen-1-yl)quinazolin-2-yl)amino)-N-(2-(2-(2-((2-(2,6-dioxopiperidin-3-yl)-1,3-dioxoisoindolin-4-yl)amino)ethoxy)ethoxy)ethyl)-N-methylpropanamide] was tested. Which “Percent Degradation … 0.3” value (H2030 cells, 0.3 μM) did it give?
Answer: C (C ≤ 35)

Question: What about the “Percent Degradation … 1” value (H2030 cells, 1 μM) of the same compound?
Answer: C (C ≤ 35)

Question: And the “Percent Degradation … (μM): 3” value (H2030 cells, 3 μM)?
Answer: C (C ≤ 35)

Question: What about the Dmax (H2030 cells) of the same compound?
Answer: ≤ 35%

Question: How did the “Percent Degradation at Indicated Concentration (μM)” value (0.3 μM) turn out when `C=CC(=O)N1CCN(c2nc(NCCC(=O)N(C)CCOCCOCCOCCOCC(=O)N[C@H](C(=O)N3C[C@H](O)C[C@H]3C(=O)N[C@@H](C)c3ccc(-c4scnc4C)cc3)C(C)(C)C)nc3c(F)c(-c4c(O)cccc4F)c(Cl)cc23)CC1` (atropisomer, axis not shown) [compound 212, (2S,4R)-1-((S)-21-(((R)-4-(4-acryloylpiperazin-1-yl)-6-chloro-8-fluoro-7-(2-fluoro-6-hydroxyphenyl)quinazolin-2-yl)amino)-2-(tert-butyl)-18-methyl-4,19-dioxo-6,9,12,15-tetraoxa-3,18-diazahenicosanoyl)-4-hydroxy-N-((S)-1-(4-(4-methylthiazol-5-yl)phenyl)ethyl)pyrrolidine-2-carboxamide] was run?
Answer: C (Percent Degradation: C ≤ 35)

Question: What about the “Percent Degradation at Indicated Concentration (μM)” value (1 μM) of the same compound?
Answer: C (Percent Degradation: C ≤ 35)

Question: And the “Percent Degradation at Indicated Concentration (μM)” value (3 μM)?
Answer: C (Percent Degradation: C ≤ 35)

Question: And the Dmax?
Answer: ≤ 35%

Question: How did the “Percent Degradation at Indicated Concentration (μM)” value (0.3 μM) turn out when `Cc1ncsc1-c1ccc([C@H](C)NC(=O)[C@@H]2C[C@@H](O)CN2C(=O)[C@@H](NC(=O)COCCOCC/C=C/C(=O)N2CCN(c3ncnc4c(F)c(-c5cc(O)cc6ccccc56)c(Cl)cc34)CC2)C(C)(C)C)cc1` [compound 373, (2S,4R)-1-((2S)-2-(2-(2-(((E)-5-(4-(6-chloro-8-fluoro-7-(3-hydroxynaphthalen-1-yl)quinazolin-4-yl)piperazin-1-yl)-5-oxopent-3-en-1-yl)oxy)ethoxy)acetamido)-3,3-dimethylbutanoyl)-4-hydroxy-N-((S)-1-(4-(4-methylthiazol-5-yl)phenyl)ethyl)pyrrolidine-2-carboxamide] was run?
Answer: C (Percent Degradation: C ≤ 35)

Question: What about the “Percent Degradation at Indicated Concentration (μM)” value (1 μM) of the same compound?
Answer: C (Percent Degradation: C ≤ 35)

Question: And the “Percent Degradation at Indicated Concentration (μM)” value (3 μM)?
Answer: C (Percent Degradation: C ≤ 35)

Question: What about the Dmax of the same compound?
Answer: ≤ 35%

Question: How did the “Percent Degradation at Indicated Concentration (μM)” value (0.3 μM) turn out when `Cc1ncsc1-c1ccc([C@H](C)NC(=O)[C@@H]2C[C@@H](O)CN2C(=O)[C@@H](NC(=O)COCC/C=C/C(=O)N2CCN(c3nc(NCCC(=O)N(C)C)nc4c(F)c(-c5cc(O)cc6ccccc56)c(Cl)cc34)CC2)C(C)(C)C)cc1` [compound 363, (2S,4R)-1-((2S)-2-(2-(((E)-5-(4-(6-chloro-2-((3-(dimethylamino)-3-oxopropyl)amino)-8-fluoro-7-(3-hydroxynaphthalen-1-yl)quinazolin-4-yl)piperazin-1-yl)-5-oxopent-3-en-1-yl)oxy)acetamido)-3,3-dimethylbutanoyl)-4-hydroxy-N-((S)-1-(4-(4-methylthiazol-5-yl)phenyl)ethyl)pyrrolidine-2-carboxamide] was run?
Answer: C (Percent Degradation: C ≤ 35)

Question: And the “Percent Degradation at Indicated Concentration (μM)” value (1 μM)?
Answer: C (Percent Degradation: C ≤ 35)

Question: And the “Percent Degradation at Indicated Concentration (μM)” value (3 μM)?
Answer: C (Percent Degradation: C ≤ 35)

Question: What about the Dmax of the same compound?
Answer: ≤ 35%

Question: Which results are given for `CC(=O)N1CCN(c2nc(NCCC(=O)N(C)CCOCCOCC(=O)N[C@H](C(=O)N3C[C@H](O)C[C@H]3C(=O)N[C@@H](C)c3ccc(-c4scnc4C)cc3)C(C)(C)C)nc3c(F)c(-c4cc(O)cc5ccccc45)c(Cl)cc23)CC1` [compound 201, (2S,4R)-1-((2S)-15-((4-(4-acetylpiperazin-1-yl)-6-chloro-8-fluoro-7-(3-hydroxynaphthalen-1-yl)quinazolin-2-yl)amino)-2-(tert-butyl)-12-methyl-4,13-dioxo-6,9-dioxa-3,12-diazapentadecanoyl)-4-hydroxy-N-((S)-1-(4-(4-methylthiazol-5-yl)phenyl)ethyl)pyrrolidine-2-carboxamide]?
Answer: Percent Degradation at Indicated Concentration (μM) (0.3 μM): C (Percent Degradation: C ≤ 35); Percent Degradation at Indicated Concentration (μM) (1 μM): C (Percent Degradation: C ≤ 35); Percent Degradation at Indicated Concentration (μM) (3 μM): C (Percent Degradation: C ≤ 35); Dmax: ≤ 35%

Question: What does the source list for `C=CC(=O)N1CCN(c2nc(NCCC(=O)N(C)CCOCCOc3ccc(-c4csc([C@@H]5CCCN5C(=O)[C@@H](NC(=O)[C@H](C)NC)C5CCCCC5)n4)c4ccccc34)nc3c(F)c(-c4c(O)cccc4F)c(Cl)cc23)CC1` (atropisomer, axis not shown) [compound 276, 3-((4-(4-acryloylpiperazin-1-yl)-6-chloro-8-fluoro-7-((S)-2-fluoro-6-hydroxyphenyl)quinazolin-2-yl)amino)-N-(2-(2-((4-(2-((S)-1-((S)-2-cyclohexyl-2-((S)-2-(methylamino)propan-amido)acetyl)pyrrolidin-2-yl)thiazol-4-yl)naphthalen-1-yl)oxy)ethoxy)ethyl)-N-methylpropanamide]?
Answer: Percent Degradation at Indicated Concentration (μM) (0.3 μM): C (Percent Degradation: C ≤ 35); Percent Degradation at Indicated Concentration (μM) (1 μM): C (Percent Degradation: C ≤ 35); Percent Degradation at Indicated Concentration (μM) (3 μM): C (Percent Degradation: C ≤ 35); Dmax: ≤ 35%

Question: What does the source list for `C=CC(=O)N1CCN(c2nc(NCCC(=O)N(C)CCOCCOCCOCCNc3cccc4c3C(=O)N(C3CCC(=O)NC3=O)C4=O)nc3c(F)c(-c4cc(O)cc5ccccc45)c(Cl)cc23)CC1` (centres unmarked) [compound 58, 3-((4-(4-acryloylpiperazin-1-yl)-6-chloro-8-fluoro-7-(3-hydroxynaphthalen-1-yl)quinazolin-2-yl)amino)-N-(2-(2-(2-(2-((2-(2,6-dioxopiperidin-3-yl)-1,3-dioxoisoindolin-4-yl)amino)ethoxy)ethoxy)ethoxy)ethyl)-N-methylpropanamide]?
Answer: Percent Degradation at Indicated Concentration (μM): 0.3 (H2030 cells, 0.3 μM): C (C ≤ 35); Percent Degradation at Indicated Concentration (μM): 1 (H2030 cells, 1 μM): C (C ≤ 35); Percent Degradation at Indicated Concentration (μM): 3 (H2030 cells, 3 μM): C (C ≤ 35); Dmax (H2030 cells): ≤ 35%

Question: For `C=CC(=O)N1CCN(c2nc(NCCC(=O)N(C)CCOCCOCCN3CCN(CC(=O)N[C@H](C(=O)N4C[C@H](O)C[C@H]4C(=O)N[C@@H](C)c4ccc(-c5scnc5C)cc4)C(C)(C)C)CC3)nc3c(F)c(-c4cc(O)cc5ccccc45)c(Cl)cc23)CC1` [compound 249, (2S,4R)-1-((2S)-2-(2-(4-(2-(2-(2-(3-((4-(4-acryloylpiperazin-1-yl)-6-chloro-8-fluoro-7-(3-hydroxynaphthalen-1-yl)quinazolin-2-yl)amino)-N-methylpropanamido)ethoxy)eth-oxy)ethyl)piperazin-1-yl)acetamido)-3,3-dimethylbutanoyl)-4-hydroxy-N-((S)-1-(4-(4-methylthiazol-5-yl)phenyl)ethyl)pyrrolidine-2-carboxamide], which “Percent Degradation at Indicated Concentration (μM)” value (0.3 μM) is on record?
Answer: C (Percent Degradation: C ≤ 35)

Question: And the “Percent Degradation at Indicated Concentration (μM)” value (1 μM)?
Answer: C (Percent Degradation: C ≤ 35)

Question: What about the “Percent Degradation at Indicated Concentration (μM)” value (3 μM) of the same compound?
Answer: C (Percent Degradation: C ≤ 35)

Question: What about the Dmax of the same compound?
Answer: ≤ 35%

Question: With `CCC(=O)N1CCN(c2nc(NCCC(=O)N(C)CCOCCOCCOCCOCCOc3ccc4c(c3)CN(C3CCC(=O)NC3=O)C4=O)nc3c(F)c(-c4cc(O)cc5ccccc45)c(Cl)cc23)CC1` (centres unmarked) [compound 54, 3-((6-chloro-8-fluoro-7-(3-hydroxynaphthalen-1-yl)-4-(4-propionylpiperazin-1-yl)quinazolin-2-yl)amino)-N-(14-((2-(2,6-dioxopiperidin-3-yl)-1-oxoisoindolin-5-yl)oxy)-3,6,9,12-tetraoxatetradecyl)-N-methylpropanamide] as the compound, how does the “Percent Degradation … 0.3” value (H2030 cells, 0.3 μM) read?
Answer: C (C ≤ 35)

Question: What about the “Percent Degradation … 1” value (H2030 cells, 1 μM) of the same compound?
Answer: C (C ≤ 35)

Question: What about the “Percent Degradation … (μM): 3” value (H2030 cells, 3 μM) of the same compound?
Answer: C (C ≤ 35)

Question: And the Dmax (H2030 cells)?
Answer: ≤ 35%
